According to patent publication US6781015B2, “Aminobenzophenones and photopolymerizable compositions including the same” (Albemarle Corporation, priority 1997, dated 2004):
“And” between values parts separate entries of the source, which are not always exact repeats. Identical values can stand only once.

Test system: Salmonella typhimurium tester strain TA98
Assay: Salmonella/Mammalian-Microsome Reverse Mutation Screening Assay (Ames Test)
Format: cell-based
Parameters: key to Background lawn: 1 = normal; 2 = slightly reduced; 3 = moderately reduced; 4 = extremely reduced; 5 = absent; 6 = obscured by precipitate; sp = slight precipitate; mp = moderate precipitate (requires hand count); hp = heavy precipitate (requires hand count)
Details: for Ames Test outcome (mutagenicity): tester strain TA98 in the presence of S9 mix
Description: Mutagenicity can be measured by a variety of assays. The most commonly used method is the Salmonella/Mammalian-Microsome Reverse Mutation Screening Assay (Ames Test), which commonly uses four or five strains of Salmonella bacteria to detect different types of mutations.
TMMK, TEMK and MEAB were evaluated for the ability to induce reverse mutations at the histidine locus in the genome of a specific Salmonella typhimurium tester strain in the presence of an exogenous metabolic activation system of mammalian microsomal enzymes derived from Aroclor™-induced rat liver (S9). The tester strain used in the mutagenicity assay was Salmonella typhimurium tester strain TA98 with added activation. The assay was conducted using eight doses of the test article, along with the appropriate vehicle and positive controls in the presence of S9 mix (S9 homogenate was purchased from Molecular Toxicology, Inc., Annapolis, Md. 21401, Batch 0646, 43.4 mg of protein per ml). Positive controls were also plated in the absence of S9 mix. All doses of test article, vehicle, and positive controls were plated in triplicate.
The test article TMMK was stored at room temperature. Acetone (CAS# 67-64-1, Fisher Scientific Co., Lot 961140) was used as the vehicle. At 20 mg per ml, which was the most concentrated stock solution which could be prepared, the test article formed a clear, light yellow solution. The test article remained a solution in all succeeding dilutions prepared for the mutagenicity assay. The maximum aliquot of acetone which can be used in the test system is 200 μl. Thus, the maximum concentration which could be tested was 4,000 μg per plate. The test article and vehicle controls were plated using a 200 μl plating aliquot. Positive control articles were plated using 50 μl plating aliquot.
(§1) The test article TEMK was stored at room temperature. Acetone (CAS# 67-64-1, Fisher Scientific Co., Lot 961140) was used as the vehicle. At 100 mg per ml, which was the most concentrated stock solution prepared, the test article formed a clear, yellow solution. The test article remained a solution in all succeeding dilutions prepared for the mutagenicity assay. The test article, vehicle controls and positive control articles were plated using a 50 μl plating aliquot.
as §1, with “MEAB” for “TEMK”, “(CAS#67-64-1,” for “(CAS# 67-64-1,”, “25” for “100”, “clear, light” for “clear,”, “article and” for “article,”, “were plated using a 200 μl plating aliquot. Positive” for “and positive”
The data are presented as individual plate counts along with a mean and standard deviation.

[1] = TA98, rat liver S9, 3.33 μg/plate
[2] = TA98, rat liver S9, 3.33 μg/plate, plates 1-3
[3] = TA98, rat liver S9, 10.0 μg/plate
[4] = TA98, rat liver S9, 10.0 μg/plate, plates 1-3
[5] = TA98, rat liver S9, 33.3 μg/plate
[6] = TA98, rat liver S9, 33.3 μg/plate, plates 1-3
[7] = TA98, rat liver S9, 100 μg/plate
[8] = TA98, rat liver S9, 100 μg/plate, plates 1-3
[9] = TA98, rat liver S9, 333 μg/plate
[10] = TA98, rat liver S9, 333 μg/plate, plates 1-3
[11] = TA98, rat liver S9, 1000 μg/plate
[12] = TA98, rat liver S9, 1000 μg/plate, plates 1-3
[13] = TA98, rat liver S9, 3330 μg/plate
[14] = TA98, rat liver S9, 3330 μg/plate, plates 1-3
[15] = TA98, rat liver S9, 5000 μg/plate
[16] = TA98, rat liver S9, 5000 μg/plate, plates 1-3
[17] = Table 1, TA98, rat liver S9, 3.33 μg/plate
[18] = Table 1, TA98, rat liver S9, 10.0 μg/plate
[19] = Table 1, TA98, rat liver S9, 33.3 μg/plate
[20] = Table 1, TA98, rat liver S9, 100 μg/plate
[21] = Table 1, TA98, rat liver S9, 333 μg/plate
[22] = Table 1, TA98, rat liver S9, 1000 μg/plate
[23] = Table 1, TA98, rat liver S9, 3330 μg/plate
[24] = Table 1, TA98, rat liver S9, 5000 μg/plate
[25] = Table 2 summary, TA98, rat liver S9, 3.33 μg/plate
[26] = Table 2 summary, TA98, rat liver S9, 10.0 μg/plate
[27] = Table 2 summary, TA98, rat liver S9, 33.3 μg/plate
[28] = Table 2 summary, TA98, rat liver S9, 100 μg/plate
[29] = Table 2 summary, TA98, rat liver S9, 333 μg/plate
[30] = Table 2 summary, TA98, rat liver S9, 1000 μg/plate
[31] = Table 2 summary, TA98, rat liver S9, 3330 μg/plate
[32] = Table 2 summary, TA98, rat liver S9, 5000 μg/plate

SMILES | Mean revertants per plate [1] [revertants per plate] | Individual plate counts, revertants per plate [2] | Mean revertants per plate [3] [revertants per plate] | Individual plate counts, revertants per plate [4] | Mean revertants per plate [5] [revertants per plate] | Individual plate counts, revertants per plate [6] | Mean revertants per plate [7] [revertants per plate] | Individual plate counts, revertants per plate [8] | Mean revertants per plate [9] [revertants per plate] | Individual plate counts, revertants per plate [10] | Mean revertants per plate [11] [revertants per plate] | Individual plate counts, revertants per plate [12] | Mean revertants per plate [13] [revertants per plate] | Individual plate counts, revertants per plate [14] | Mean revertants per plate [15] [revertants per plate] | Individual plate counts, revertants per plate [16] | Background lawn [17] | Background lawn [18] | Background lawn [19] | Background lawn [20] | further results
Nc1ccc2cc3ccccc3cc2c1 [2-aminoanthracene] | – | – | – | – | – | – | – | – | – | – | – | – | – | – | – | – | – | – | – | – | Background lawn (Table 1, positive control, TA98, rat liver S9, 2.5 μg/plate, in the TMMK, TEMK and MEAB runs): 1; Background lawn (Table 2 summary, positive control, TA98, rat liver S9, 2 5 μg/plate, in the TMMK, TEMK and MEAB runs): 1; Individual plate counts, revertants per plate (positive control, TA98, rat liver S9, 2.5 μg/plate, plates 1-3, in the TMMK, TEMK and MEAB runs): 1053 revertants per plate and 1225 revertants per plate and 1226 revertants per plate and 920 revertants per plate and 932 revertants per plate and 1264 revertants per plate and 1032 revertants per plate and 1133 revertants per plate and 1196 revertants per plate; Mean revertants per plate (positive control, TA98, rat liver S9, 2 5 μg/plate, in the TMMK, TEMK and MEAB runs): 968 revertants per plate and 1143 revertants per plate and 1216 revertants per plate
CCN(C)c1ccc(C(=O)c2ccc(N(C)CC)cc2)cc1 [MEAB, 4,4′-bis(methylethylamino)benzophenone] | 19 | 21 revertants per plate and 22 revertants per plate and 13 revertants per plate | 21 | 28 revertants per plate and 11 revertants per plate and 25 revertants per plate | 24 | 25 revertants per plate and 24 revertants per plate (2×) | 19 | 18 revertants per plate and 20 revertants per plate (2×) | 24 | 31 revertants per plate and 19 revertants per plate and 21 revertants per plate | 27 | 23 revertants per plate and 21 revertants per plate and 36 revertants per plate | 19 | 14 revertants per plate and 17 revertants per plate and 27 revertants per plate | 24 | 23 revertants per plate (2×) and 27 revertants per plate | 1 | 1 | 1 | 1 sp | Background lawn [21]: 1 mp; Background lawn [22]: 1 mp; Background lawn [23]: 1 hp; Background lawn [24]: 1 hp; Background lawn [25]: 1; Background lawn [26]: 1; Background lawn [27]: 1; Background lawn [28]: 1 sp; Background lawn [29]: 1 mp; Background lawn [30]: 1 mp; Background lawn [31]: 1 hp; Background lawn [32]: 1 hp; Ames Test outcome (mutagenicity): did not cause a positive increase
CCN(CC)c1ccc(C(=O)c2ccc(N(CC)CC)cc2)cc1 [TEMK, 4,4′-bis(diethylamino)benzophenone] | 25 | 22 revertants per plate (2×) and 30 revertants per plate | 25 | 30 revertants per plate and 24 revertants per plate and 20 revertants per plate | 18 | 13 revertants per plate and 23 revertants per plate and 19 revertants per plate | 26 | 28 revertants per plate and 26 revertants per plate and 24 revertants per plate | 19 | 20 revertants per plate and 17 revertants per plate and 19 revertants per plate | 24 | 32 revertants per plate and 23 revertants per plate and 17 revertants per plate | 22 | 27 revertants per plate and 15 revertants per plate and 25 revertants per plate | 22 | 27 revertants per plate and 19 revertants per plate (2×) | 1 | 1 | 1 | 1 | Background lawn [21]: 1 sp; Background lawn [22]: 1 mp; Background lawn [23]: 1 mp; Background lawn [24]: 1 mp; Background lawn [25]: 1; Background lawn [26]: 1; Background lawn [27]: 1; Background lawn [28]: 1; Background lawn [29]: 1 sp; Background lawn [30]: 1 mp; Background lawn [31]: 1 mp; Background lawn [32]: 1 mp; Ames Test outcome (mutagenicity): did not cause a positive increase
